Data as given in patent publication EP0470490B1, “Substituted pyrroles” (F. HOFFMANN-LA ROCHE AG, priority 1990, dated 1992).
pIC50: −log10 of the molar value. Counter-ions that a name gives are not always drawn.

target: protein kinase C; assay: in vitro protein kinase C inhibition: protein kinase-induced incorporation of 32P from [γ-32P]ATP into histone; format: biochemical; conditions: concentration of test compound which reduces by 50% the protein kinase-induced incorporation of 32P from [γ-32P]ATP into histone
Excerpt: Research Comm. 19 (1979) 1218. The IC50 values in the following Table are that concentration of test compound which reduces by 50% the protein kinase-induced incorporation of ^32P from [γ-^32P]ATP into histone. Table

pIC50	Structure (SMILES)
7.52	CN1C[C@@H]2Cc3c(C4=C(c5cn(C)c6ccccc56)C(=O)NC4=O)c4ccccc4n3C[C@@H]2C1 (relative stereo) [Example 6, cis-3-[2,3,3a,4,11,11a-hexahydro-2-methyl-1H-pyrrolo[3',4':4,5]pyrido-[1,2-a]indol-10-yl]-4-(1-methyl-3-indolyl)-1H-pyrrole-2,5-dione hydrochloride]
8.15	CN1C[C@H]2Cc3c(C4=C(c5cn(C)c6ccccc56)C(=O)NC4=O)c4ccccc4n3C[C@@H]2C1 (relative stereo) [Example 14, trans-3-(2,3,3a,4,11,11a-hexahydro-2-methyl-1H-pyrrolo[3',4':4,5]pyrido[1,2-a]indol-10-yl)-4-(1-methyl-3-indolyl)-1H-pyrrole-2,5-dione hydrochloride]
7.40	Cn1cc(C2=C(c3c4n(c5ccccc35)CCC3(CCNC3)C4)C(=O)NC2=O)c2ccccc21 (stereo not drawn) [Example 1, 3-[6,7,8,9-tetrahydrospiro[pyrido[1,2-a]indole-8,3'-pyrrolidin-10-yl]-4-(1-methyl-3-indolyl)-pyrrole-2,5-dione trifluoroacetate]
